Laboratory results: US11986493B2 (University of Pittsburgh—Of the Commonwealth System of …, priority 2013, dated 2024)

Test system: subjects with pulmonary hypertension (WHO group I PAH, WHO group III PH)
Assay: Right heart catheterization: right heart/pulmonary artery hemodynamics, thermodilution cardiac output, PVR and SVR after inhaled NO and nebulized nitrite
Type: in vivo, human
Description: A total of 6 subjects with a confirmed diagnosis of pulmonary hypertension and meeting all inclusion/exclusion criteria were enrolled in the study which entailed a single right heart catheterization. The study population consisted of subjects with WHO group I PAH (n=3) and subjects with WHO group III PH (n=3) which received the dose escalation paradigm:
During the study right heart/pulmonary artery hemodynamics were measured as well as noninvasive systemic blood pressure monitoring and simultaneous RV echocardiography. Subjects were tested for the changes in pulmonary vascular resistance (PVR) measured by right heart catheterization and using thermodilution cardiac output measurement at time zero, at times 15, 30 and 45 minutes after completion of each nebulization dose.
Following right heart catheterization, the patient was stabilized for 20 minutes. Baseline blood collections and hemodynamic measurements were performed, followed by treatment with 40 ppm inhaled NO gas for […] with repeat hemodynamic measurements performed.
After stopping inhaled NO gas, a single dose of sildenafil was given if patients were on background sildenafil therapy at previously prescribed doses. 45-minutes after sildenafil dose baseline hemodynamics were performed.
Subjects were monitored carefully during and after the study treatment.
The study was conducted at the 3rd FL Catheterization Laboratory at Presbyterian Hospital of the University of Pittsburgh Medical Center (UPMC). Baseline vasoreactivity was recorded after Inhaled NO at 40 ppm for […]. […] Subjects were instructed to breathe as calmly, and deeply as possible until no more mist was formed in the nebulizer chamber. Subjects were also instructed to hold their breath for approximately 10 seconds after inhalation to allow the study drug to reach deep into the lungs.

[1] = Patient 1, nitrite 45 mg inhaled, 15 min
[2] = Patient 1, nitrite 45 mg inhaled, 30 min
[3] = Patient 1, nitrite 45 mg inhaled, 45 min
[4] = Patient 1, nitrite 45 mg inhaled, 60 min
[5] = Patient 1, nitrite 90 mg inhaled, 15 min
[6] = Patient 1, nitrite 90 mg inhaled, 30 min
[7] = Patient 1, nitrite 90 mg inhaled, 45 min
[8] = Patient 1, nitrite 90 mg inhaled, 60 min
[9] = Patient 2, nitrite 45 mg inhaled, 15 min
[10] = Patient 2, nitrite 45 mg inhaled, 30 min
[11] = Patient 2, nitrite 45 mg inhaled, 45 min
[12] = Patient 2, nitrite 45 mg inhaled, 60 min
[13] = Patient 2, nitrite 90 mg inhaled, 15 min
[14] = Patient 2, nitrite 90 mg inhaled, 30 min
[15] = Patient 2, nitrite 90 mg inhaled, 45 min
[16] = Patient 2, nitrite 90 mg inhaled, 60 min
[17] = Patient 3, nitrite 45 mg inhaled, 15 min
[18] = Patient 3, nitrite 45 mg inhaled, 30 min
[19] = Patient 3, nitrite 45 mg inhaled, 45 min
[20] = Patient 3, nitrite 45 mg inhaled, 60 min
[21] = Patient 3, nitrite 90 mg inhaled, 15 min
[22] = Patient 3, nitrite 90 mg inhaled, 30 min
[23] = Patient 3, nitrite 90 mg inhaled, 45 min
[24] = Patient 3, nitrite 90 mg inhaled, 60 min

## O=NO [nitrite, sodium nitrite]
[1]
  CI: 2.47
  CO: 4.77
  PA sat: 66
  PAD: 35
  PAS: 93
  PCWP: 11
  PVR: 9.09
  PVR/SVR: 0.58
  RA: 9
  RVD: 8
  RVS: 98
  SVR: 15.66
  TPR: 11.39
  mPAP: 54.34
[2]
  CI: 2.65
  CO: 5.12
  PA sat: 68
  PAD: 36
  PAS: 98
  PCWP: 7
  PVR: 9.70
  PVR/SVR: 0.64
  RA: 10
  RVD: 10
  RVS: 94
  SVR: 15.24
  TPR: 11.07
  mPAP: 56.67
[3]
  CI: 2.51
  CO: 4.85
  PA sat: 63
  PAD: 38
  PAS: 100
  PCWP: 9
  PVR: 10.24
  PVR/SVR: 0.66
  RA: 9
  RVD: 9
  RVS: 95
  SVR: 15.53
  TPR: 12.10
  mPAP: 58.67
[4]
  CI: 3.11
  CO: 6.01
  PA sat: 62
  PAD: 36
  PAS: 98
  PCWP: 7
  PVR: 8.27
  PVR/SVR: 0.63
  RA: 9
  RVD: 9
  RVS: 94
  SVR: 13.15
  TPR: 9.43
  mPAP: 56.67
[5]
  CI: 2.93
  CO: 5.65
  PA sat: 64
  PAD: 32
  PAS: 92
  PCWP: 2
  PVR: 8.85
  PVR/SVR: 0.68
  RA: 3
  RVD: 3
  RVS: 96
  SVR: 13.10
  TPR: 9.20
  mPAP: 52.01
[6]
  CI: 2.99
  CO: 5.77
  PA sat: 61
  PAD: 32
  PAS: 92
  PCWP: 2
  PVR: 8.67
  PVR/SVR: 0.68
  RA: 4
  RVD: 3
  RVS: 91
  SVR: 12.83
  TPR: 9.01
  mPAP: 52.01
[7]
  CI: 3.22
  CO: 6.22
  PA sat: 62
  PAD: 31
  PAS: 90
  PCWP: 2
  PVR: 7.83
  PVR/SVR: 0.67
  RA: 3
  RVD: 3
  RVS: 92
  SVR: 11.63
  TPR: 8.15
  mPAP: 50.67
[8]
  CI: 3.14
  CO: 6.06
  PA sat: 62
  PAD: 30
  PAS: 90
  PCWP: 3
  PVR: 7.76
  PVR/SVR: 0.61
  RA: 3
  RVD: 2
  RVS: 88
  SVR: 12.65
  TPR: 8.25
  mPAP: 50.01
[9]
  CI: 3.67
  CO: 7.08
  PAD: 19
  PAS: 57
  PCWP: 8
  PVR: 3.34
  PVR/SVR: 0.25
  RA: 6
  SVR: 13.28
  TPR: 4.47
  mPAP: 31.67
[10]
  CI: 3.88
  CO: 7.48
  PAD: 22
  PAS: 64
  PCWP: 9
  PVR: 3.61
  PVR/SVR: 0.30
  RA: 6
  SVR: 11.99
  TPR: 4.81
  mPAP: 36.01
[11]
  CI: 3.93
  CO: 7.58
  PAD: 21
  PAS: 62
  PCWP: 8
  PVR: 3.52
  PVR/SVR: 0.29
  RA: 3
  SVR: 12.23
  TPR: 4.57
  mPAP: 34.67
[12]
  CI: 3.89
  CO: 7.5
  PAD: 21
  PAS: 64
  PCWP: 8
  PVR: 3.65
  PVR/SVR: 0.32
  RA: 4
  SVR: 11.38
  TPR: 4.71
  mPAP: 35.34
[13]
  CI: 3.81
  CO: 7.35
  PAD: 20
  PAS: 57
  PCWP: 8
  PVR: 3.31
  PVR/SVR: 0.25
  RA: 2
  SVR: 13.06
  TPR: 4.40
  mPAP: 32.34
[14]
  CI: 4.60
  CO: 8.87
  PAD: 22
  PAS: 60
  PCWP: 6
  PVR: 3.23
  PVR/SVR: 0.31
  RA: 3
  SVR: 10.41
  TPR: 3.91
  mPAP: 34.67
[15]
  CI: 4.19
  CO: 8.09
  PAD: 21
  PAS: 62
  PCWP: 7
  PVR: 3.42
  PVR/SVR: 0.28
  RA: 3
  SVR: 12.12
  TPR: 4.29
  mPAP: 34.67
[16]
  CI: 4.56
  CO: 8.8
  PAD: 22
  PAS: 68
  PCWP: 6
  PVR: 3.56
  PVR/SVR: 0.33
  RA: 5
  RVD: 3
  RVS: 62
  SVR: 10.76
  TPR: 4.24
  mPAP: 37.34
[17]
  CI: 3.19
  CO: 6.63
  PAD: 19
  PAS: 80
  PCWP: 14
  PVR: 3.82
  PVR/SVR: 0.45
  RA: 12
  SVR: 8.55
  TPR: 5.93
  mPAP: 39.34
[18]
  CI: 3.08
  CO: 6.4
  PAD: 20
  PAS: 70
  PCWP: 15
  PVR: 3.39
  PVR/SVR: 0.37
  RA: 10
  SVR: 9.22
  TPR: 5.73
  mPAP: 35.67
[19]
  CI: 3.17
  CO: 6.6
  PAD: 20
  PAS: 74
  PCWP: 14
  PVR: 3.64
  PVR/SVR: 0.42
  RA: 13
  SVR: 8.64
  TPR: 5.76
  mPAP: 38.01
[20]
  CI: 3.07
  CO: 6.39
  PAD: 20
  PAS: 70
  PCWP: 14
  PVR: 3.55
  PVR/SVR: 0.40
  RA: 13
  SVR: 8.92
  TPR: 5.74
  mPAP: 36.67
[21]
  CI: 3.69
  CO: 7.67
  PAD: 19
  PAS: 69
  PCWP: 13
  PVR: 2.96
  PVR/SVR: 0.40
  RA: 12
  SVR: 7.48
  TPR: 4.65
  mPAP: 35.67
[22]
  CI: 2.41
  CO: 5.01
  PAD: 17
  PAS: 73
  PCWP: 11
  PVR: 4.92
  PVR/SVR: 0.39
  RA: 10
  SVR: 12.51
  TPR: 7.12
  mPAP: 35.67
[23]
  CI: 2.94
  CO: 6.11
  PAD: 19
  PAS: 71
  PCWP: 12
  PVR: 3.98
  PVR/SVR: 0.42
  RA: 11
  SVR: 9.55
  TPR: 5.95
  mPAP: 36.34
[24]
  CI: 3.34
  CO: 6.95
  PAD: 20
  PAS: 72
  PCWP: 14
  PVR: 3.36
  PVR/SVR: 0.36
  RA: 9
  RVD: 8
  RVS: 71
  SVR: 9.31
  TPR: 5.37
